Measured values published in patent US5391540A, “Substituted pyridine compounds” (Rohm and Haas Company, priority 1993, dated 1995).

Tests used:
Test in all cases: Pre-emergent herbicidal activity (Table A)
Type in all cases: in vivo
Annual Bluegrass = conditions: pre-emergence, Anbg, 11.2 kg/ha, 10-14 days, read-out: herbicidal rating (% inhibition)
Description: (§1) Tables A and B summarize results of tests conducted to determine the pre-emergent herbicidal activity of the compounds of this invention. The herbicidal ratings used in Tables A and B were assigned according to a scale based on the percent inhibition of each plant species. The herbicide rating symbols in Tables A and B are defined as follows: […]
(§2) One set of pre-emergent tests was conducted as follows:
(§3) Topsoil was placed in a pan and compacted to a depth of 0.95 to 1.27 cm. from the top of the pan. A predetermined number of seeds of each of several monocotyledonous and dicotyledonous annual plant species and/or vegetative propagules of various perennial plant species were placed on top of the soil. The soil required to level fill a pan after seeding or adding vegetative propagules was weighed into another pan. A known amount of the test compound dissolved or suspended in an organic solvent or water and applied in acetone or water as a carrier was thoroughly mixed with this cover soil, and the herbicide/soil mixture was used as a cover layer for the previously prepared pan. In Table A below the amounts of active ingredient were all equivalent to an application rate of 11.2 kilograms/hectare (kg/ha). After treatment, the pans were moved to a greenhouse bench where they were watered as needed to give adequate moisture for germination and growth.
(§4) Approximately 10-14 days (usually 11 days) after planting and treating, the plants were observed and the results recorded.
(§5) The plant species usually regarded as weeds which were utilized in one set of pre-emergent activity tests, the data for which are shown in Table A, are identified by letter headings printed diagonally above the columns according to the following legend: […]

Indian Mustard = conditions: Brassica juncea, pre-emergence, Inmu, 11.2 kg/ha, 10-14 days, read-out: herbicidal rating (% inhibition)
Description: as §1, §2, §3, §4, §5

Seedling Johnsongrass = conditions: Sorghum halepense, pre-emergence, Sejg, 11.2 kg/ha, 10-14 days, read-out: herbicidal rating (% inhibition)
Description: as §1, §2, §3, §4, §5

Wild Buckwheat = conditions: Fallopia convolvulus, pre-emergence, Wibw, 11.2 kg/ha, 10-14 days, read-out: herbicidal rating (% inhibition)
Description: as §1, §2, §3, §4, §5

Barnyardgrass = conditions: Echinochloa crus-galli, pre-emergence, Bygr, 11.2 kg/ha, 10-14 days, read-out: herbicidal rating (% inhibition)
Outline: (§6)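 Seeds or vegetative propagules were set on topsoil compacted to 0.95 to 1.27 cm below the pan rim, then covered with soil thoroughly mixed with a known amount of test compound in acetone or water carrier. Ratings follow a scale of percent inhibition per species.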

Cocklebur = conditions: Xanthium strumarium, pre-emergence, Cobu, 11.2 kg/ha, 10-14 days, read-out: herbicidal rating (% inhibition)
Outline: as §6

Downy Brome = conditions: Bromus tectorum, pre-emergence, Dobr, 11.2 kg/ha, 10-14 days, read-out: herbicidal rating (% inhibition)
Outline: as §6

Morningglory = conditions: Ipomoea, pre-emergence, Mogl, 11.2 kg/ha, 10-14 days, read-out: herbicidal rating (% inhibition)
Outline: as §6

Velvetleaf = conditions: Abutilon theophrasti, pre-emergence, Vele, 11.2 kg/ha, 10-14 days, read-out: herbicidal rating (% inhibition)
Outline: as §6

Yellow Nutsedge = conditions: Cyperus, pre-emergence, Yens, 11.2 kg/ha, 10-14 days, read-out: herbicidal rating (% inhibition)
Outline: as §6

| SMILES | inhibition at 11200 g/ha (Annual Bluegrass) [%] | inhibition at 11200 g/ha (Indian Mustard) [%] | inhibition at 11200 g/ha (Seedling Johnsongrass) [%] | inhibition at 11200 g/ha (Wild Buckwheat) [%] | inhibition at 11200 g/ha (Barnyardgrass) [%] | inhibition at 11200 g/ha (Cocklebur) [%] | inhibition at 11200 g/ha (Downy Brome) [%] | inhibition at 11200 g/ha (Morningglory) [%] | inhibition at 11200 g/ha (Velvetleaf) [%] | inhibition at 11200 g/ha (Yellow Nutsedge) [%] |
| --- | --- | --- | --- | --- | --- | --- | --- | --- | --- | --- |
| COC(=O)c1c(OC)nc(C(F)(F)F)c(C2OCCS2)c1CC(C)C (stereo not drawn) [Compound 122, 3-pyridinecarboxylic acid, 2-methoxy-4-(2-methylpropyl)-5-(1,3-oxathiolan-2-yl)-6-(trifluoromethyl)-, methyl ester] | 75 to 100 | 75 to 100 | 75 to 100 | 75 to 100 | 75 to 100 | 0 to 24 | 75 to 100 | 75 to 100 | 75 to 100 | 50 to 74 |
| COC(=O)c1c(OC)nc(C(F)(F)F)c(C(Cl)=NCCCl)c1CC(C)C [Compound 95, 3-pyridinecarboxylic acid, 5-[(chloro[2-chloroethyl)imino)methyl]-2-methoxy-4-(2-methylpropyl)-6-(trifluoromethyl)-, methyl ester] | 75 to 100 | 50 to 74 | 75 to 100 | 75 to 100 | 75 to 100 | 0 to 24 | 25 to 49 | 0 to 24 | 50 to 74 | 0 to 24 |
| COC(=O)c1c(OC)nc(C(F)(F)F)c(-c2nccs2)c1CC(C)C [Compound 129, 3-pyridinecarboxylic acid, 2-methoxy-4-(2-methylpropyl)-5-(2-thiazolyl)-6-(trifluoromethyl)-, methyl ester] | 75 to 100 | 75 to 100 | 75 to 100 | 75 to 100 | 75 to 100 | 50 to 74 | 75 to 100 | 75 to 100 | 75 to 100 | 75 to 100 |
| COC(=O)c1c(OC)nc(C(F)(F)F)c(C2OCC(=O)O2)c1CC(C)C (stereo not drawn) [Compound 123, 3-pyridinecarboxylic acid, 2-methoxy-4-(2-methylpropyl)-5-(4-oxo-1,3-dioxolan-2-yl)-6-(trifluoromethyl)-, methyl ester] | 75 to 100 | 75 to 100 | 75 to 100 | 75 to 100 | 75 to 100 | 0 to 24 | 75 to 100 | 25 to 49 | 25 to 49 | 0 to 24 |
| COC(=O)c1c(OC)nc(C(F)(F)F)c(C=O)c1C1CCC1 [Compound 139, 3-pyridinecarboxylic acid, 4-cyclobuty1-5-formy1-2-methoxy-6-(trifluoromethyl)-, methyl ester] | 75 to 100 | 75 to 100 | 75 to 100 | 75 to 100 | 75 to 100 | 0 to 24 | 75 to 100 | 50 to 74 | 75 to 100 | 0 to 24 |
| COC(=O)c1c(OC)nc(C(F)(F)F)c(CO)c1CC1CC1 [Compound 117, 3-pyridinecarboxylic acid, 4-(cyclopropylmethyl)-5-(hydroxymethyl)-2-methoxy-6-(trifluoromethyl)-, methyl ester] | 75 to 100 | 50 to 74 | 75 to 100 | 50 to 74 | 75 to 100 | 0 to 24 | 0 to 24 | 0 to 24 | 25 to 49 | 0 to 24 |
| COC(=O)c1c(OC)nc(C(F)(F)F)c(C=O)c1CC1CC1 [Compound 115, 3-pyridinecarboxylic acid, 4-(cyclopropylmethyl)-5-formy1-2-methoxy-6-(trifluoromethyl)-, methyl ester] | 75 to 100 | 75 to 100 | 75 to 100 | 50 to 74 | 75 to 100 | 0 to 24 | 75 to 100 | 50 to 74 | 50 to 74 | 25 to 49 |
| CCOC=NNC(=O)c1c(C(F)(F)F)nc(OC)c(C(=O)OC)c1CC(C)C [Compound 124, 3,5-pyridinedicarboxylic acid, 2-methoxy-4-(2-methylpropyl)-6-(trifluoromethyl)-, 3-methyl ester, 5-(ethoxymethylene)hydrazide] | 0 to 24 | 0 to 24 | 0 to 24 | 0 to 24 | 0 to 24 | 0 to 24 | 0 to 24 | 0 to 24 | 0 to 24 | 0 to 24 |
| COC(=O)c1c(OC)nc(C(F)(F)F)c(C2OCC[S+]2[O-])c1CC(C)C (stereo not drawn) [Compound 126, 3-pyridinecarboxylic acid, 2-methoxy-4-(2-methylpropyl)-5-(1,3-oxathiolan-2-yl)-6-(trifluoromethyl)-, methyl ester, S-oxide] | 75 to 100 | 75 to 100 | 75 to 100 | 75 to 100 | 75 to 100 | 25 to 49 | 75 to 100 | 75 to 100 | 75 to 100 | 0 to 24 |
| COC(=O)c1c(OC)nc(C(F)(F)F)c(C(=O)n2cc(Cl)cn2)c1CC(C)C [Compound 104] | 75 to 100 | 75 to 100 | 75 to 100 | 50 to 74 | 75 to 100 | 0 to 24 | 50 to 74 | 50 to 74 | 50 to 74 | 0 to 24 |
| COc1nc(C(F)(F)F)c(C(=O)n2cccn2)c(CC(C)C)c1C(=O)SC [Compound 131, 3-pyridinecarbothioic acid, 2-methoxy-4-(2-methylpropyl)-5-(1H-pyrazo1-1-ylcarbonyl)-6-(trifluoromethyl)-, S-methyl ester] | 75 to 100 | 75 to 100 | 75 to 100 | 75 to 100 | 75 to 100 | 50 to 74 | 75 to 100 | 75 to 100 | 75 to 100 | 75 to 100 |
| COC(=O)c1c(OC)nc(C(F)(F)F)c(C(=O)OCC(F)(F)F)c1CC(C)C [Compound 112, 3,5-pyridinedicarboxylic acid, 2-methoxy-4-(2-methylpropyl)-6-(trifluoromethyl)-, 3-methyl 5-(2,2,2-trifluoroethyl) ester] | 75 to 100 | 75 to 100 | 75 to 100 | 75 to 100 | 75 to 100 | 0 to 24 | 75 to 100 | 50 to 74 | 75 to 100 | 0 to 24 |
